Data on 21 compounds can be found in USRE47689E1, “Compounds for treating spinal muscular atrophy” (PTC Therapeutics, Inc., priority 2011, dated 2019).

Data set [1] relates to SMN2 minigene (full length SMN2 minigene mRNA containing SMN2 exon 7). The experiment in a line: SMN2 minigene mRNA splicing RT-qPCR assay in cultured cells. In kind it is cell-based, human. The following applies: Homo sapiens, HEK293-H, read-out: EC1.5x for production of full length SMN2 mRNA. The essentials: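 Full-length SMN2 minigene mRNA (exon 7 included), minigene-specific and not endogenous SMN, quantified by RT-qPCR multiplexed with GAPDH in stably transfected HEK293H cells after 24 h compound exposure at 37° C. Abundance from efficiency-corrected Ct, normalized to GAPDH and vehicle; EC1.5x reported as star bins.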
For orientation: In qPCR the cycle at which signal appears reflects the starting amount.

Data set [2] has as its system Smn protein. In words: Smn protein assay in cultured cells (SMN HTRF). In kind it is cell-based, human. The settings on record: 48 hours; for maximum fold (Fold) increase of Smn protein: SMA patient fibroblast cells, 7-point concentration data, fold increase relative to vehicle control (SMN HTRF); for EC1.5x (concentration giving 1.5-fold Smn protein increase): SMA Type 1 patient fibroblast cells (GM03813), 7-point concentration curve, SMN HTRF, concentration producing 1.5 times Smn protein vs DMSO vehicle control, read-out: EC1.5x for Smn protein expression. The essentials:
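Smn in SMA fibroblast lysates, measured by anti-SMN HTRF after 48 h compound exposure; EC1.5x from fold change over vehicle.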

The mark [3] stands for this setting: HEK293H cells stably transfected with SMN2-A minigene, 24 hours, 7-point concentration curve, 1.5-fold relative to vehicle-treated cells.

Like-named read-outs stand apart in the source and are kept apart here. Some results are limits rather than exact numbers.

For orientation: melting point means the temperature of the solid-liquid transition. On to `O=c1oc2cc(N3CCNCC3)ccc2cc1-c1cccc(F)c1` [Compound 26, 3-(3-fluorophenyl)-7-(piperazin-1-yl)-2H-chromen-2-one], for which the melting point is 148 to 150 °C. Further, the EC (1.5-fold) in data set [1] (24 h) is 1 to 3 µM. The “maximum fold (Fold) increase of Smn protein” value (“maximum fold (Fold) increase” below) in data set [2] is on record as “* (maximum fold increase of ≤1.2)”.

`Cc1cn2cc(-c3cc4ccc(N5CCC(N6CCOCC6)C5)cc4oc3=O)cc2c(C)n1` (stereo not shown) [Compound 757, 3-(1,3-dimethylpyrrolo[1,2-a]pyrazin-7-yl)-7-[3-(morpholin-4-yl)pyrrolidin-1-yl]-2H-chromen-2-one] returned a melting point of 118 to 122 °C. Besides, the EC (1.5-fold) in data set [1] (setting [3]) was in the range of 0.3 to 1 µM. Besides, in data set [2], the EC1.5x (concentration giving 1.5-fold Smn protein increase) is 1000 to 3000 nM; the “maximum fold (Fold) increase” value is “*** (fold increase between >1.35 and ≤1.5)”.

`Cc1cn2cc(-c3cc4ccc(N5CCC(N(C)C)CC5)cc4oc3=O)cc2c(C)n1` [Compound 715, 7-[4-(dimethylamino)piperidin-1-yl]-3-(1,3-dimethylpyrrolo[1,2-a]pyrazin-7-yl)-2H-chromen-2-one] showed a melting point of 192 to 195 °C. The EC (1.5-fold) in data set [1] (setting [3]) was under 0.1 µM. For the same compound, the “maximum fold (Fold) increase” value in data set [2] is “** (fold increase between >1.2 and ≤1.35)”.

Compound `Cc1nccn2cc(-c3cc4ccc(N5CCCN(C)CC5)cc4oc3=O)cc12` [Compound 556, 7-(4-methyl-1,4-diazepan-1-yl)-3-(1-methylpyrrolo[1,2-a]pyrazin-7-yl)-2H-chromen-2-one] gave a melting point of 125 to 128 °C. In data set [1] (setting [3]), the EC (1.5-fold) was in the range of 0.1 to 0.3 µM. Further, in data set [2], the EC1.5x (concentration giving 1.5-fold Smn protein increase) was 300 to 1000 nM; the “maximum fold (Fold) increase” value is “*** (fold increase between >1.35 and ≤1.5)”.

As for `Cc1cccc(-c2cc3ccc(N4CCNCC4)cc3oc2=O)c1` [Compound 511, 3-(3-methylphenyl)-7-(piperazin-1-yl)-2H-chromen-2-one], the melting point lay within 118 to 120 °C. Moreover, the EC (1.5-fold) in data set [1] (24 h) was 1 to 3 µM. Further, the “maximum fold (Fold) increase” value in data set [2] is “* (maximum fold increase of ≤1.2)”.

In the case of `CN1CCN(c2ccc3cc(-c4cn5cccc(C(F)(F)F)c5n4)c(=O)oc3c2)CC1` [Compound 210, 7-(4-methylpiperazin-1-yl)-3-[8-(trifluoromethyl)imidazo[1,2-a]pyridin-2-yl]-2H-chromen-2-one], the melting point fell in the range of 235 to 237 °C. Moreover, the EC (1.5-fold) in data set [1] (setting [3]) was in the range of 0.3 to 1 µM. Besides, the “maximum fold (Fold) increase” value in data set [2] was “* (maximum fold increase of ≤1.2)”.

In the case of `C[C@@H]1CN(c2ccc3cc(-c4cn5cccc(F)c5n4)c(=O)oc3c2)CCN1` [Compound 530, 3-(8-fluoroimidazo[1,2-a]pyridin-2-yl)-7-[(3R)-3-methylpiperazin-1-yl]-2H-chromen-2-one], the melting point lay in the range of 226 to 228 °C. Moreover, in data set [1] (setting [3]), the EC (1.5-fold) is 0.3 to 1 µM. In addition, in data set [2], the EC1.5x (concentration giving 1.5-fold Smn protein increase) was under 300 nM; the “maximum fold (Fold) increase” value is “**** (fold increase between >1.5 and ≤1.65)”.

In turn, `CN1CCCN(c2ccc3cc(-c4cn5cc(C6CC6)cc(F)c5n4)c(=O)oc3c2)CC1` [Compound 499, 3-(6-cyclopropyl-8-fluoroimidazo[1,2-a]pyridin-2-yl)-7-(4-methyl-1,4-diazepan-1-yl)-2H-chromen-2-one] registered a melting point of 234 to 244 °C. In data set [1] (setting [3]), the EC (1.5-fold) lay within 0.3 to 1 µM. Moreover, the “maximum fold (Fold) increase” value in data set [2] is given as “* (maximum fold increase of ≤1.2)”.

Regarding `Cc1cn2cc(-c3cc4ccc(N5CCN(CCO)CC5)cc4oc3=O)cc2cn1` [Compound 684, 7-[4-(2-hydroxyethyl)piperazin-1-yl]-3-(3-methylpyrrolo[1,2-a]pyrazin-7-yl)-2H-chromen-2-one], the melting point is 212 to 215 °C. The EC (1.5-fold) in data set [1] (setting [3]) was under 0.1 µM. Further, in data set [2], the EC1.5x (concentration giving 1.5-fold Smn protein increase) was under 300 nM; the “maximum fold (Fold) increase” value was “**** (fold increase between >1.5 and ≤1.65)”.

On to `COc1cccc(-c2cc3ccc(N4CCN[C@H](C)C4)cc3oc2=O)n1` [Compound 361, 3-(6-methoxypyridin-2-yl)-7-[(3R)-3-methylpiperazin-1-yl]-2H-chromen-2-one], for which the melting point lay in the range of 150 to 152 °C. In data set [1] (setting [3]), the EC (1.5-fold) lay in the range of 1 to 3 µM. In data set [2], the “maximum fold (Fold) increase” value was “** (fold increase between >1.2 and ≤1.35)”.

`CN1CCN(c2ccc3cc(-c4nc5c(Cl)cccc5o4)c(=O)oc3c2)CC1` [Cpd 68, 3-(4-chloro-1,3-benzoxazol-2-yl)-7-(4-methylpiperazin-1-yl)-2H-chromen-2-one] yielded a melting point of 229 to 231 °C. Moreover, the EC (1.5-fold) in data set [1] (setting [3]) is 1 to 3 µM. Moreover, in data set [2], the “maximum fold (Fold) increase” value was “** (fold increase between >1.2 and ≤1.35)”.

Consider `Cc1cn2cc(-c3cc4ccc(OCCNC(C)(C)CO)cc4oc3=O)nc2c(C)n1` [Compound 955, 3-(6,8-dimethylimidazo[1,2-a]pyrazin-2-yl)-7-{2-[(1-hydroxy-2-methylpropan-2-yl)amino]ethoxy}-2H-chromen-2-one], for which the melting point was in the range of 187 to 191 °C. Besides, the EC (1.5-fold) in data set [1] (setting [3]) was in the range of 0.1 to 0.3 µM. Further, the “maximum fold (Fold) increase” value in data set [2] was “*** (fold increase between >1.35 and ≤1.5)”.

`C[C@@H]1CN(c2ccc3cc(-c4nc5ccccc5s4)c(=O)oc3c2)C[C@H](C)N1` [Compound 24, 3-(1,3-benzothiazol-2-yl)-7-[(3R,5S)-3,5-dimethylpiperazin-1-yl]-2H-chromen-2-one] gave a melting point of 248 to 252 °C. The EC (1.5-fold) in data set [1] (setting [3]) was 1 to 3 µM. In addition, the “maximum fold (Fold) increase” value in data set [2] is “* (maximum fold increase of ≤1.2)”.

In turn, `O=c1oc2cc(CN3CCCCC3)ccc2cc1-c1nc2c(Cl)cccc2s1` [Compound 60, 3-(4-chloro-1,3-benzothiazol-2-yl)-7-(piperidin-1-ylmethyl)-2H-chromen-2-one] registered a melting point of 191 to 195 °C. In addition, in data set [1] (setting [3]), the EC (1.5-fold) lay in the range of 1 to 3 µM. Further, in data set [2], the “maximum fold (Fold) increase” value was “** (fold increase between >1.2 and ≤1.35)”.

Take `Cc1ccc2nc(-c3cc4ccc(N5CCN[C@@H](C)C5)cc4oc3=O)cn2n1` [Compound 624, 3-(6-methylimidazo[1,2-b]pyridazin-2-yl)-7-[(3S)-3-methylpiperazin-1-yl]-2H-chromen-2-one]: the melting point is 208 to 212 °C. Also, in data set [1] (setting [3]), the EC (1.5-fold) is under 0.1 µM. Besides, in data set [2], the “maximum fold (Fold) increase” value is “*** (fold increase between >1.35 and ≤1.5)”.

On to `Cc1cn2cc(-c3cc4ccc(N5CC[C@@H](CN(C)C)C5)cc4oc3=O)nc2c(C)n1` [Compound 967, 7-{(3S)-3-[(dimethylamino)methyl]pyrrolidin-1-yl}-3-(6,8-dimethylimidazo[1,2-a]pyrazin-2-yl)-2H-chromen-2-one], for which the melting point lay in the range of 198 to 200 °C. In addition, the EC (1.5-fold) in data set [1] (setting [3]) is under 0.1 µM. In data set [2], the EC1.5x (concentration giving 1.5-fold Smn protein increase) was under 300 nM; the “maximum fold (Fold) increase” value was “**** (fold increase between >1.5 and ≤1.65)”.

With `O=c1oc2cc(N3CCN(CCO)CC3)ccc2cc1-c1cc2ccccn2n1` [Compound 190, 7-[4-(2-hydroxyethyl)piperazin-1-yl]-3-(pyrazolo[1,5-a]pyridin-2-yl)-2H-chromen-2-one], the melting point fell in the range of 201 to 205 °C. Moreover, in data set [1] (setting [3]), the EC (1.5-fold) lay in the range of 1 to 3 µM. The “maximum fold (Fold) increase” value in data set [2] is “** (fold increase between >1.2 and ≤1.35)”.

Regarding `Cc1ccn2cc(-c3cc4ccc(N5CCNC(C)(C)C5)cc4oc3=O)nc2c1` [Compound 215, 7-(3,3-dimethylpiperazin-1-yl)-3-(7-methylimidazo[1,2-a]pyridin-2-yl)-2H-chromen-2-one], the melting point was 217 to 223 °C. Further, in data set [1] (setting [3]), the EC (1.5-fold) lay in the range of 1 to 3 µM. The “maximum fold (Fold) increase” value in data set [2] is “* (maximum fold increase of ≤1.2)”.

For the compound `CCNCCOc1ccc2cc(-c3cn4cc(C)nc(C)c4n3)c(=O)oc2c1` [Compound 930, 3-(6,8-dimethylimidazo[1,2-a]pyrazin-2-yl)-7-[2-(ethylamino)ethoxy]-2H-chromen-2-one], the melting point lay within 189 to 193 °C. The EC (1.5-fold) in data set [1] (setting [3]) is under 0.1 µM. Also, in data set [2], the EC1.5x (concentration giving 1.5-fold Smn protein increase) is under 300 nM and the “maximum fold (Fold) increase” value is “***** (fold increase >1.65)”.

As to `CN(C)Cc1ccc2cc(-c3nc4ccccc4s3)c(=O)oc2c1` [Compound 13, 3-(1,3-benzothiazol-2-yl)-7-[(dimethylamino)methyl]-2H-chromen-2-one], the melting point fell in the range of 171 to 176 °C. For the same compound, in data set [1] (setting [3]), the EC (1.5-fold) was in the range of 1 to 3 µM. Further, the “maximum fold (Fold) increase” value in data set [2] is “** (fold increase between >1.2 and ≤1.35)”.

The compound `CN1CCCN(c2cc(F)c3cc(-c4cn5ccsc5n4)c(=O)oc3c2)CC1` [Compound 373, 5-fluoro-3-(imidazo[2,1-b][1,3]thiazol-6-yl)-7-(4-methyl-1,4-diazepan-1-yl)-2H-chromen-2-one] came in with a melting point of 205 to 207 °C. Further, in data set [1] (setting [3]), the EC (1.5-fold) was under 0.1 µM. For the same compound, in data set [2], the EC1.5x (concentration giving 1.5-fold Smn protein increase) was in the range of 300 to 1000 nM; the “maximum fold (Fold) increase” value is “**** (fold increase between >1.5 and ≤1.65)”.
